Experimental data published in publication PMC10644342, “Improved Antibacterial Activity of 1,3,4-Oxadiazole-Based Compounds That Restrict Staphylococcus aureus Growth Independent of LtaS Function” (ACS Infectious Diseases, 2023).

Assays:
E. coli strain K12 [1] = assay: Growth inhibition in combination with PAβN; type: cell-based, Escherichia coli; details: for concentration at which growth was completely inhibited: E. coli K12, 50 μg/mL PAβN; for MIC: Escherichia coli, E. coli K12, 100 μg/mL PAβN
Experimental: (§1) Phenylalanine-arginine β-naphthylamide (PAβN) is a well-studied efflux pump inhibitor, which can also permeabilize the outer membrane of Gram-negative organisms.[40] […] Without the addition of PAβN (0 μg/mL), neither 1771 nor 13 had any growth inhibitory activity at concentrations up to 64 μg/mL. With the addition of 25 μg/mL of PAβN, the E. coli strain K12 could still grow in the presence of 64 μg/mL of 1771 or 13; however, the growth rate was severely impacted in a dose-dependent manner. […] To further evaluate the Gram-negative coverage of 1771 and 13, we also tested 1771 or 13 in combination with PAβN against Pseudomonas aeruginosa strain PAO1, Klebsiella pneumoniae strain 699 (clinical isolate), and Acinetobacter baumannii strain DF1000 (clinical isolate) (Figure S6a–c).
Figure 8 Permeabilization of the outer membrane renders E. coli susceptible to 1771 and 13. Bacterial growth curves of (a) 1771 and (b) 13 (0–64 μg/mL) in combination with 0, 25, 50, and 100 μg/mL of PAβN. The bacterial growth (OD600nm) was plotted against time following 18 h of growth at 37 °C. The icons represent the mean of three biological replicates.

MRSA strain LAC = assay: Time-kill kinetic analysis; type: cell-based, Staphylococcus aureus; details: for effect on growth of LAC: 1× MIC, 24 h, inoculum 5 × 10^5 cfu
Experimental: Overnight cultures of MRSA strain LAC were subcultured 1:200 and grown to the exponential phase in fresh MHB. These cultures were subsequently diluted to give 500 μL of MHB containing 5 × 10^5 cfu. […] These suspensions were incubated for 24 h at 37 °C, with 50 μL of the suspension serially diluted 1:10 in 450 μL of phosphate buffered saline (PBS) and plated out on TSA at times 0, 1, 2, 4, 6, and 24 h for enumeration.

[2] = system: Pseudomonas aeruginosa strain PAO1; assay: Growth inhibition in combination with PAβN; type: cell-based; details: 32 μg/mL compound with 100 μg/mL PAβN
Experimental: as §1
Figure S6. Permeabilization of the outer membrane renders Gram-negative bacteria susceptible to 1771 and compound 13. Bacterial growth curves of A) Klebsiella pneumoniae, B) Acinetobacter baumannii and C) Pseudomonas aeruginosa against 1771 and 13 (0 – 64 µg/ml) in combination with 0, 25, 50, 100 µg/ml of PAβN. The bacterial growth (OD 600nm) was […]
(1 picture or pasted object on this page, not shown here)

LTA = system: LTA; parameters: method as in PMID 23401520; details: cited from earlier work
E. coli strain K12 [3] = system: E. coli strain K12; parameters: method as in PMID 23401520; details: initial small-molecule library screen; cited from earlier work
[4] = system: MRSA strains LAC and EMRSA-15; assay: Serial passage resistance study; type: cell-based, Staphylococcus aureus; details: 25 days serial passage, after 14 days, then stable for 11 days
Experimental: plotted against time following 18 hours of growth at 37 °C. The icons represent the mean of three biological replicates.
Supplementary Materials and Methods
Synergistic activity with clinically relevant antibiotics
The synergistic ability of 1771 and 13 was achieved using the chequerboard micro-broth dilution method. Antibiotic partners tested included: oxacillin, daptomycin, vancomycin, gentamicin, and linezolid with starting concentrations of 256 µg/ml, 8 µg/ml, 8 µg/ml, 4 µg/ml, and 8 µg/ml respectively. Overnight cultures were sub-cultured 1:200 in fresh MHB and grown to optical density of OD600nm of 0.5-0.6 and prepared according to the MIC analysis. Following an 18 h incubation at 37 °C the sum of the fractional inhibitory […]
using the equation ΣFIC = FICA +FICB = (MICA in combination with B/MICA) + (MICB in combination with A/MICB). The resulting value was interpreted according to the following rules: synergistic (FIC ≤ 0.5), additive (FIC >0.5, <1) or indifferent (FIC ≥ 1 <4).
Serial passage resistance study
A serial passage in 1771 was performed using MRSA strains, LAC and EMRSA-15. For this assay, 15 ml tubes were filled with 3 ml of MHB and varying concentrations of 1771. The tubes containing either LAC or EMRSA-15 were incubated at 37 °C for 24 h before each passage. […]

S. aureus = system: S. aureus; parameters: method as in PMID 23401520; details: incubation for 3–4 days; cited from earlier work
LtaS = system: LtaS; parameters: method as in PMID 29300473; details: LtaS in artificial liposomes; cited from earlier work
[5] = E. coli K12, 25 μg/mL PAβN, growth rate severely impacted dose-dependently
[6] = E. coli K12, without PAβN (0 μg/mL), 18 h

Row | Structure (SMILES) | growth inhibitory concentration (E. coli strain K12 [1]; [5]) | concentration at which growth was completely inhibited (E. coli strain K12 [1]) | growth inhibitory concentration (E. coli strain K12 [1]; [6]) | MIC (E. coli strain K12 [1]) | effect on growth of LAC (MRSA strain LAC) | starting inoculum surviving the exposure (MRSA strain LAC; 4× MIC, LAC) | growth of PAO1 [2] | LTA signal (LTA) | effect on the growth of Escherichia coli (E. coli strain K12 [3]) | change of MIC on serial passage [4] | killing effect (MRSA strain LAC; 4× MIC, LAC) | resistant mutant selection (S. aureus) | inhibition of LtaS polymerization activity (LtaS)
1 | O=C(COC(=O)Cc1coc2ccc3ccccc3c12)Nc1nnc(-c2ccc(S(F)(F)(F)(F)F)cc2)o1 [Compound 13, 2-Oxo-2-((5-(4-(pentafluoro-l6-sulfaneyl)phenyl)-1,3,4-oxadiazol-2-yl)amino)ethyl 2-(Naphtho[2,1-b]furan-1-yl)acetate] | > 64 µg/mL | 64 µg/mL | > 64 µg/mL | 1 µg/mL | completely inhibited the growth | 1% | severely inhibited |  |  |  |  |  | 
2 | O=C(COC(=O)Cc1coc2ccc3ccccc3c12)Nc1nnc(-c2ccccc2)o1 [Compound 1771, 2-Oxo-2-((5-phenyl-1,3,4-oxadiazol-2-yl)amino)ethyl 2-(Naphtho[2,1-b]furan-1-yl)acetate, reference compound] | > 64 µg/mL | 64 µg/mL | > 64 µg/mL | 4 µg/mL | completely inhibited the growth |  |  | dose-dependent reduction in the LTA signal | no effect on the growth | increased twofold | roughly 65% | did not result in resistant mutant selection | did not show inhibitory activity
